Patent US20210330566A1, “WATER-SOLUBILIZED MIXTURE OF GINSENOSIDE COMPOUND K AND METHOD OF WATERSOLUBILIZING GINSENOSIDE COMPOUND K” (VENN SKINCARE, INC., priority 2018, published 2021)

Experiment: Solubility test of ginsenoside compound K depending on type of solvent
Type: physicochemical
Conditions: 95% of solvent and 5% of ginsenoside compound K
Description: The solubility of ginsenoside compound K was tested to be checked for representative polar and nonpolar solvents mainly used in cosmetics.

CC(C)=CCC[C@](C)(O[C@@H]1O[C@H](CO)[C@@H](O)[C@H](O)[C@H]1O)[C@H]1CC[C@]2(C)[C@@H]1[C@H](O)C[C@@H]1[C@@]3(C)CC[C@H](O)C(C)(C)[C@@H]3CC[C@]12C [ginsenoside compound K, 20-O-β-D-glucopyranosyl-20(S)-protopanaxadiol]
Solubility (60° C.) (solvent Ethanol): Soluble
Solubility (room temperature) (solvent Ethanol): Soluble
Solubility (60° C.) (solvent Glycerin): Insoluble
Solubility (room temperature) (solvent Glycerin): Insoluble
Solubility (60° C.) (solvent Mineral Oil): Insoluble
Solubility (room temperature) (solvent Mineral Oil): Insoluble
Solubility (60° C.) (solvent Non-Polar Ester Oil): Insoluble
Solubility (room temperature) (solvent Non-Polar Ester Oil): Insoluble
Solubility (60° C.) (solvent Polar Ester Oil): Insoluble
Solubility (room temperature) (solvent Polar Ester Oil): Insoluble
Solubility (60° C.) (solvent Silicone): Insoluble
Solubility (room temperature) (solvent Silicone): Insoluble
Solubility (60° C.) (solvent Surfactant): Insoluble
Solubility (room temperature) (solvent Surfactant): Insoluble
Solubility (60° C.) (solvent Vegetable Oil): Insoluble
Solubility (room temperature) (solvent Vegetable Oil): Insoluble
Solubility (60° C.) (solvent Water): Insoluble
Solubility (room temperature) (solvent Water): Insoluble
